Consider 16 molecules from patent US20080200454A1, “CARBON-LINKED TETRAHYDRO-PYRAZOLO-PYRIDINE MODULATORS OF CATHEPSIN S” (priority 2007, published 2008).

Where two headings read alike, the source gives them in different places.

This experiment deals with Recombinant human cathepsin S (CatS) (Homo sapiens, UniProt P25774). Description: Recombinant human cathepsin S (CatS) inhibition assay, fluorogenic substrate Z-Valine-Valine-Arginine-AMC.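 Note: Baculovirus-expressed CatS in pH 5.0 sodium acetate buffer with DTT and NaCl, fluorescence read each minute over 20 min, inhibition derived from rate slope.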
Sequence of Recombinant human cathepsin S (CatS) (P25774 115-331): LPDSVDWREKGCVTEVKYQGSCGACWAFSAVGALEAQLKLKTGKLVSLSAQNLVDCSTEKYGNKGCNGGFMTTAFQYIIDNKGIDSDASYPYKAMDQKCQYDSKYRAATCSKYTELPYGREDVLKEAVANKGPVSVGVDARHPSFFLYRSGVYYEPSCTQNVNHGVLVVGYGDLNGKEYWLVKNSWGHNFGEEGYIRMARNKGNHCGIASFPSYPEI

Take `CS(=O)(=O)N1CCc2c(c(-c3ccc(Cl)c(C#Cc4ccc5c(c4)CN(C(=O)C(F)(F)F)C5)c3)nn2CCCN2CCOCC2)C1` [Example 364, 3-(4-Chloro-3-{[2-(trifluoroacetyl)-2,3-dihydro-1H-isoindol-5-yl]ethynyl}phenyl)-5-(methylsulfonyl)-1-(3-morpholin-4-ylpropyl)-4,5,6,7-tetrahydro-1H-pyrazolo[4,3-c]pyridine]: the IC50 (in general, the concentration needed to halve the response being measured) (CatS IC50) came to 170 nM. Regarding `C[C@H]1COCCN1CCCn1nc(-c2ccc(Cl)c(C#Cc3ccc(Cl)c(C(=O)NCCN4CCOCC4)c3)c2)c2c1CCN(C(=O)C(N)=O)C2` [Example 168, 5-{[5-(5-[Amino(oxo)acetyl]-1-{3-[(3S)-3-methylmorpholin-4-yl]propyl}-4,5,6,7-tetrahydro-1H-pyrazolo[4,3-c]pyridin-3-yl)-2-chlorophenyl]ethynyl}-2-chloro-N-(2-morpholin-4-ylethyl)benzamide], the half-inhibitory concentration (IC50) (CatS IC50) worked out at 30 nM. Take `NC(=O)C1CCN(CCCn2nc(-c3ccc(Cl)c(C#Cc4ccc(CNCc5ccc(Cl)cc5)cc4)c3)c3c2CCN(C(N)=O)C3)CC1` [Example 461, 1-{3-[4-(Aminocarbonyl)piperidin-1-yl]propyl}-3-(4-chloro-3-{[4-({[(4-chlorophenyl)methyl]amino}methyl)phenyl]ethynyl}phenyl)-1,4,6,7-tetrahydro-5H-pyrazolo[4,3-c]pyridine-5-carboxamide]: the IC50 worked out at 30 nM.

Consider `CS(=O)(=O)N1CCc2c(c(-c3ccc(Cl)c(C#Cc4ccc(F)c(CNCc5ccccc5)c4)c3)nn2CCCN2CCOCC2)C1` [Example 290, 1-[5-({2-Chloro-5-[5-(methylsulfonyl)-1-(3-morpholin-4-ylpropyl)-4,5,6,7-tetrahydro-1H-pyrazolo[4,3-c]pyridin-3-yl]phenyl}ethynyl)-2-fluorophenyl]-N-(phenylmethyl)methanamine], for which the IC50 (CatS IC50) stood at 210 nM.

Take `Cc1ccc(CNCc2ccc(C#Cc3cc(-c4nn(CCCN5CCSCC5)c5c4CN(C(N)=O)CC5)ccc3Cl)cc2)cc1` [Example 173, 3-(4-Chloro-3-{[4-({[(4-methylphenyl)methyl]amino}methyl)phenyl]ethynyl}phenyl)-1-(3-thiomorpholin-4-ylpropyl)-1,4,6,7-tetrahydro-5H-pyrazolo[4,3-c]pyridine-5-carboxamide]: the concentration for half-maximal inhibition (IC50) (CatS IC50) amounted to 120 nM. Take `NC(=O)N1CCc2c(c(-c3ccc(Cl)c(C#Cc4ccc(CNCc5ccccc5F)cc4)c3)nn2CCCN2CCSCC2)C1` [Example 542, 3-(4-Chloro-3-{[4-({[(2-fluorophenyl)methyl]amino}methyl)phenyl]ethynyl}phenyl)-1-(3-thiomorpholin-4-ylpropyl)-1,4,6,7-tetrahydro-5H-pyrazolo[4,3-c]pyridine-5-carboxamide]: the half-maximal inhibitory concentration (IC50) (CatS IC50) stood at 180 nM. For `CS(=O)(=O)N1CCc2c(c(-c3ccc(Cl)c(C#Cc4ccc(CNCc5ccc(Cl)cc5)cc4)c3)nn2C[C@H](O)CN2CCSCC2)C1` [Example 262, (R)-1-[3-(4-Chloro-3-{4-[(4-chloro-benzylamino)-methyl]-phenylethynyl}-phenyl)-5-methanesulfonyl-4,5,6,7-tetrahydro-pyrazolo[4,3-c]pyridin-1-yl]-3-thiomorpholin-4-yl-propan-2-ol], the half-maximal inhibitory concentration (IC50) (CatS IC50) was 120 nM. Regarding `C[C@H]1COCCN1CCCn1nc(-c2ccc(Cl)c(C#Cc3ccc(F)c(CNCc4ccccc4)c3)c2)c2c1CCN(S(C)(=O)=O)C2` [Example 539, 1-[5-({2-Chloro-5-[1-{3-[(3S)-3-methylmorpholin-4-yl]propyl}-5-(methylsulfonyl)-4,5,6,7-tetrahydro-1H-pyrazolo[4,3-c]pyridin-3-yl]phenyl}ethynyl)-2-fluorophenyl]-N-(phenylmethyl)methanamine], the concentration for half-maximal inhibition (IC50) (CatS IC50) was determined as 210 nM. On to `CS(=O)(=O)N1CCc2c(c(-c3ccc(Cl)c(CCCNS(=O)(=O)c4ccccc4)c3)nn2CCCN2CCOCC2)C1` [Example 65, N-(3-{2-Chloro-5-[5-methanesulfonyl-1-(3-morpholin-4-yl-propyl)-4,5,6,7-tetrahydro-1H-pyrazolo[4,3-c]pyridin-3-yl]-phenyl}-propyl)-benzenesulfonamide], for which the IC50 worked out at 1070 nM. In the case of `CN(Cc1ccc(Cl)cc1)Cc1ccc(C#Cc2cc(-c3nn(CCCN4CCOCC4)c4c3CN(S(C)(=O)=O)CC4)ccc2Cl)cc1` [Example 495, 1-[4-({2-Chloro-5-[5-(methylsulfonyl)-1-(3-morpholin-4-ylpropyl)-4,5,6,7-tetrahydro-1H-pyrazolo[4,3-c]pyridin-3-yl]phenyl}ethynyl)phenyl]-N-[(4-chlorophenyl)methyl]-N-methylmethanamine], the IC50 (CatS IC50) was 770 nM. For the molecule `CS(=O)(=O)N1CCc2c(c(-c3ccc(Cl)c(CCc4ccc(Cl)c(CNCc5ccccc5)c4)c3)nn2CCCN2CCOCC2)C1` [Example 288, 1-[2-Chloro-5-(2-{2-chloro-5-[5-(methylsulfonyl)-1-(3-morpholin-4-ylpropyl)-4,5,6,7-tetrahydro-1H-pyrazolo[4,3-c]pyridin-3-yl]phenyl}ethyl)phenyl]-N-(phenylmethyl)methanamine], the concentration for half-maximal inhibition (IC50) is 120 nM. Consider `C[C@H]1COCCN1CCCn1nc(-c2ccc(Cl)c(C#Cc3ccc(Cl)c(CN(C)C)c3)c2)c2c1CCN(C(=O)C(N)=O)C2` [Example 616, 2-(3-[4-Chloro-3-({4-chloro-3-[(dimethylamino)methyl]phenyl}ethynyl)phenyl]-1-{3-[(3S)-3-methylmorpholin-4-yl]propyl}-1,4,6,7-tetrahydro-5H-pyrazolo[4,3-c]pyridin-5-yl)-2-oxoacetamide], for which the IC50 (CatS IC50) was 12 nM. For the molecule `COC(=O)[C@@H](NCc1ccc(C#Cc2cc(-c3nn(CCCN4CCOCC4)c4c3CN(S(C)(=O)=O)CC4)ccc2Cl)cc1)c1ccccc1` [Example 351, Methyl (2S)-({[4-({2-chloro-5-[5-(methylsulfonyl)-1-(3-morpholin-4-ylpropyl)-4,5,6,7-tetrahydro-1H-pyrazolo[4,3-c]pyridin-3-yl]phenyl}ethynyl)phenyl]methyl}amino)(phenyl)ethanoate], the half-maximal inhibitory concentration (IC50) stood at 120 nM. As to `CS(=O)(=O)N1CCc2c(c(-c3ccc(Cl)c(C#Cc4ccc(CNC5CCCc6ccccc65)cc4)c3)nn2CCCN2CCN(c3ccccn3)CC2)C1` (stereo in doubt) [Example 215, (1R)—N-({4-[(2-Chloro-5-{5-(methylsulfonyl)-1-[3-(4-pyridin-2-ylpiperazin-1-yl)propyl]-4,5,6,7-tetrahydro-1H-pyrazolo[4,3-c]pyridin-3-yl}phenyl)ethynyl]phenyl}methyl)-1,2,3,4-tetrahydronaphthalen-1-amine], the IC50 was determined as 30 nM.

Regarding `NC(=O)C(=O)N1CCc2c(c(-c3ccc(Cl)c(C#Cc4ccc(CNCc5ccc(Cl)cc5)cc4)c3)nn2CCCN2CCOCC2)C1` [Example 150, 2-[3-(4-Chloro-3-{[4-({[(4-chlorophenyl)methyl]amino}methyl)phenyl]ethynyl}phenyl)-1-(3-morpholin-4-ylpropyl)-1,4,6,7-tetrahydro-5H-pyrazolo[4,3-c]pyridin-5-yl]-2-oxoacetamide], the IC50 was determined as 80 nM. Same read-out and setting: the value for `CS(=O)(=O)N1CCc2c(c(-c3ccc(Cl)c(C#Cc4cccc(CO)c4)c3)nn2CCCN2CCOCC2)C1` [Example 6, (3-{2-Chloro-5-[5-methanesulfonyl-1-(3-morpholin-4-yl-propyl)-4,5,6,7-tetrahydro-1H-pyrazolo[4,3-c]pyridin-3-yl]-phenylethynyl}-phenyl)-methanol] was 950 nM.
